One assay has as its system CD8^+ T cells. Briefly: IFN-gamma ELISPOT with overlapping NY-BR-1 18-mers, CD8+ T cells of NY-BR-1 positive patients. Format: cell-based, human. The note with it: for recognized by CD8+ cells: IFN-gamma ELISPOT after presensitization with 18-mer, numbering by SEQ ID NO: 32. As to the method:
(§1) CD4^+ and CD8^+ T lymphocytes were separated from PBMC of NY-BR-1 positive patients by magnetic beads (MiniMACS) and seeded into 48-well plates at a concentration of 2.5-5×10^5 cells per well in RPMI medium 1640 supplemented with 10% human serum, L-asparagine (50 mg/l), L-arginine (242 mg/l), and L-glutamine (300 mg/l). PBMC depleted of T cells were used as antigen presenting cells. After irradiation, these cells were incubated with 39 single peptides (10 μg/ml) spanning amino acids 1004-1397 of NY-BR-1(SEQ ID NO: 32) each of 18 amino acids in length and overlapping in 8 positions on each terminus, for 1 hour at room temperature and added to plates at a concentration of 1×10^6 cells per well. IL-2 and IL-4 (2.5 ng/ml and 50 U/ml, respectively) were added to CD4^+ T cell cultures, and IL-2 and IL-7 (2.5 ng/ml and 10 ng/ml, respectively) to CD8^+ T cells. Peptide specific T cell responses against the stimulating epitope were determined by IFN-gamma ELISPOT assays 6 to 12 days after presensitization.
(§2) Flat-bottomed, 96 well nitrocellulose plates were coated with IFN-γ mAb and incubated overnight at 4° C. After washing with PBS, the plates were blocked with 10% human AB serum for 1 hour at 37° C. Presensitized CD4^+ or CD8^+ T cells from (1×10^3 to 5×10^4) and 5×10^4 peptide-pulsed APC (autologous Dendritic Cells or Epstein Barr Virus transfected B cells) were added to each well and incubated for 20 hours in RPMI medium 1640 lacking both IL-2 and human serum. Plates were then washed thoroughly with PBS to remove cells, and biotinylated IFN-γ mAbs were added to each well. After incubation for 2 hours at 37° C., the plates were washed and developed with streptavidin-alkaline phosphase for 1 hour at room temperature. After washing, substrate (5-bromo-4-chloro-3-indolyl phosphate/nitroblue tetrazolium) was added and incubated for 5 minutes.
(§3) Both CD4^+ and CD8^+ T cells were collected from twenty patients, who had been diagnosed with cancer and expressed NY-BR-1, as determined via the methods set forth supra. These CD4^+ and CD8^+ T cells were then analyzed for spontaneous NY-BR-1 specific, CD4^+ and CD8^+ responses.
(§4) Lymphocytes, which had been purified in accordance with the standard methods set forth supra, were presensitized with synthetic 18 mers which overlapped each other, and spanned amino acids […] of SEQ ID NO: 32.
(§5) Following the presensitization, effector cell populations were tested for recognition of ELISPOT assays, with autologous, EBV transfected B cells, and T2 cell lines being used as the antigen presenting cells in the ELISPOT assays. ELISPOT assays were carried out as described supra.

A further assay has as its system CD8^+ T cell clones. As to the kind of experiment: T cell stimulation assay: TNF-α production by peptide/HLA-A2 specific CTL clones with COS-7 transfectants (NY-BR-1 + HLA-A2). It is filed as cell-based, human. The note with it: COS-7 cells transfected with NY-BR-1 and HLA-A2; CD8+ T cell clones of breast cancer patient NW-1100. As to the method: Sequences encoding NY-BR-1 were excised from plasmid pQE9, via standard restriction enzyme digestion, and were cloned into BamHI-Hind III sites of commercially available plasmid pcDNA31 (−).
The resulting vectors were then transfected into COS-7 cells. To accomplish this, 2×10^4COS-7 cells were admixed with 150 ng of the construct described supra, and 150 ng of plasmid pcDNA-AmpI, which contained cDNA encoding HLA-A2. The standard DE AE-dextran chloroquine method was used. Transfectants were then incubated at 37° C. for 48 hours, and then tested in a T cell stimulation assay, after 24 hours, as described infra.
The transfectants were tested to determine if they could stimulate production of TNF-α by CTLs specific for complexes of HLA-A2 molecules and one of the peptides described supra. The CTLs used were CD8^+ T cell clones. […]
To test if the transfectants stimulated the CD8^+ cells, 5000 of these CD8^+ cells, in 100 μl RPMI supplemented with 10% human serum, and 25 U/ml of recombinant human IL-2 were added to micowells containing the transfectants. After 24 hours, 50 μl samples of supernatant were collected, and TNFα content was determined by testing cytotoxicity against WEHI 164 clone 13 cells, in an MTT colorimetric assay, which is a standard method for showing TNFα production.

Another assay relates to CD8^+ cells. As to the kind of experiment: ELISPOT assay (interferon gamma) of CTL stimulation by NY-BR-1 peptides pulsed onto T2 cells. Format: cell-based, human. The note with it: peptides pulsed onto irradiated T2 cells at 10 ug/ml; CD8+ effector cells presensitized with peptide; HLA-A2. As for the experimental part:
A series of peptides were synthesized, based upon the amino acid sequence of NY-BR-1, as set forth in SEQ ID NO: 23 and the concatenation of SEQ ID NOS: 30 & 23, as described supra and set forth at SEQ ID NO: 32. These were then tested for their ability to bind to HLA-A2 molecules and to stimulate CTL proliferation, using an ELISPOT assay. This assay involved coating 96-well, flat bottom nitrocellulose plates with 5 ug/ml of anti-interferon gamma antibodies in 100 ul of PBS per well, followed by overnight incubation. Purified CD8^+ cells, which had been separated from PBL samples via magnetic beads coated with anti-CD8 antibodies were then added, at 1×10^5 cells/well, in RPMI 1640 medium, that had been supplemented with 10% human serum, L-asparagine (50 mg/l), L-arginine (242 mg/l), L-glutamine (300 mg/l), together with IL-2 (2.5 ng/ml), in a final volume of 100 ul. CD8^+ effector cells were prepared by presensitizing with peptide, and were then added at from 5×103 to 2×10^4 cells/well. Peptides were pulsed onto irradiated T2 cells at a concentration of 10 ug/ml for 1 hour, washed and added to effector cells, at 5×10^4 cells/well. The plates were incubated for 16 hours at 37° C., washed six times with 0.05% Tween 20/PBS, and were then supplemented with biotinylated, anti-interferon gamma specific antibody at 0.5 ug/ml. After incubation for 2 hours at 37° C., plates were washed, and developed with commercially available reagents, for 1 hour, followed by 10 minutes of incubation with dye substrate. Plates were then prepped for counting, positives being indicated by blue spots. The number of blue spots/well was determined as the frequency of […] specific CTLs/well.
Experiments were run, in triplicate, and total number of CTLs was calculated. As controls, one of reagents alone, effector cells alone, or antigen presenting cells alone were used. The difference between the number of positives in stimulated versus non-stimulated cells, was calculated as the effective number of peptide specific CTLs above background.

The subject of the next assay is CD4^+ T cells. As to the kind of experiment: IFN-gamma ELISPOT with overlapping NY-BR-1 18-mers, CD4+ T cells of NY-BR-1 positive patients. Format: cell-based, human. The note with it: IFN-gamma ELISPOT after presensitization with 18-mer, numbering by SEQ ID NO: 32. As to the method: as §1, §2, §3, §4, §5
The target in assay [1] is T1, serum samples from breast cancer patients and normal serum samples (Homo sapiens, UniProt Q9BXX3).
T1 construct: made in house
T1 sequence (Q9BXX3 1049-1244): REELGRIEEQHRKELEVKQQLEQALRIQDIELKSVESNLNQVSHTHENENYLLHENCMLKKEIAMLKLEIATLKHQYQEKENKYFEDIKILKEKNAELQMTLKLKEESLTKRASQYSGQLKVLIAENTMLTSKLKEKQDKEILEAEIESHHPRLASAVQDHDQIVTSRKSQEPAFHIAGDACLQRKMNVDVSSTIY
Briefly: Western blotting of serum samples against recombinant NY-BR-1 protein fragments. It is filed as binding. As for the experimental part:
The frequency of antibody response against NY-BR-1 in breast cancer patients was tested. To do this, a recombinant protein consisting of amino acids 993-1188 of SEQ ID NO: 23 was prepared. (This is the protein encoded by clone BR 17-128, referred to supra). A total of 140 serum samples were taken from breast cancer patients, as were 60 normal serum samples. These were analyzed via Western blotting, using standard methods.
An additional set of experiments was then carried out to determine if sera recognized the portion of NY-BR-1 protein with repetitive elements. To do this, a different recombinant protein, consisting of amino acids 405-1000 was made, and tested in Western blot assays.
Background: Immunoblotting shows a protein as a band on a membrane.

Turning to HIAGDACLQRKMNVDVSS [p1224-1241], the “recognized by CD8+ cells” value with CD8^+ T cells is reported as “recognized”.
On to “LLSHGAVIEV [NY-BR-1 derived peptide, HLA-A2]”, for which the “peptide/HLA-A2 complexes recognized by CD8+ T cells (TNFα production); naturally processed epitope” value in the assay with CD8^+ T cell clones is listed as “natural epitopes”. Besides, the “reactive in ELISPOT (peptide specific CTLs above background)” value (shortened to “reactive in ELISPOT”) with CD8^+ cells is “reactive”.
On to FNYNNHLKNRIYQYEKEK [p1374-1391], for which, in the assay with CD4^+ T cells, the “CD4+ cells reacted / recognized by CD4+ T cells” value (shortened to “CD4+ cells reacted / recognized”) was “reacted”.
As to HLLKEKNEEIFNYNNHLK [p1364-1381], in the assay on CD4^+ T cells, the “CD4+ cells reacted / recognized” value was “reacted”.
On to QYQEKENKYFEDIKILKE [p1124-1141], for which, in the assay with CD4^+ T cells, the “CD4+ cells reacted / recognized” value is on record as “reacted”.
For QQQLVHAHKKADNKSKIT [p1334-1351], the “recognized by CD8+ cells” value with CD8^+ T cells is “recognized”.
Turning to EDIKILKEKNAELQMTLK [p1134-1151], the “CD4+ cells reacted / recognized” value in the assay with CD4^+ T cells was “reacted”.
For the molecule ENQKVKWEQELCSVRLTL [p1014-1031], the “CD4+ cells reacted / recognized” value in the assay with CD4^+ T cells (listed as 1011-1021) is “reacted”.
On to YSGQLKVLIAENTMLTSK [p1164-1181], for which the “CD4+ cells reacted / recognized” value in the assay with CD4^+ T cells is recorded as “reacted”.
With LRENTLVSEHAQRDQRET [p1274-1291], the “recognized by CD8+ cells” value in the assay on CD8^+ T cells is given as “recognized”.
As for “SLSKILDTV [NY-BR-1 derived peptide, HLA-A2]”, the “peptide/HLA-A2 complexes recognized by CD8+ T cells (TNFα production); naturally processed epitope” value with CD8^+ T cell clones was “natural epitopes”. Moreover, the “reactive in ELISPOT” value with CD8^+ cells is given as “reactive”.
On to KINLNYAGDALRENTLVS [p1264-1281], for which the “recognized by CD8+ cells” value in the assay with CD8^+ T cells was “recognized”. Besides, the “CD4+ cells reacted / recognized” value in the assay on CD4^+ T cells is given as “reacted”.
For the molecule “SLDQKLFQL [NY-BR-1 derived peptide, HLA-A2]”, in the assay with CD8^+ cells, the “reactive in ELISPOT” value is “reactive”.
As to HENENYLLHENCMLKKEI [p1094-1111], the “CD4+ cells reacted / recognized” value with CD4^+ T cells is reported as “reacted”.
For the molecule TSRKSQEPAFHIAGDACL [p1214-1231], the “recognized by CD8+ cells” value with CD8^+ T cells was “recognized”. Moreover, the HLA restriction result in the assay with CD8^+ T cells (recognized when pulsed onto T2 cells, patient 1) was “restricted to HLA-A2”.

B1: amino acids 405-1000: recombinant protein consisting of amino acids 405-1000 of NY-BR-1, the portion with repetitive elements (protein, UniProt Q9BXX3 405-1000, looked up, fragment)
chain: KFTWAAKGRPRKIAWEKKETPVKTGCVARVTSNKTKVLEKGRSKMIACPTKESSTKASANDQRFPSESKQEEDEEYSCDSRSLFESSAKIQVCIPESIYQKVMEINREVEEPPKKPSAFKPAIEMQNSVPNKAFELKNEQTLRADPMFPPESKQKDYEENSWDSESLCETVSQKDVCLPKATHQKEIDKINGKLEESPNKDGLLKATCGMKVSIPTKALELKDMQTFKAEPPGKPSAFEPATEMQKSVPNKALELKNEQTLRADEILPSESKQKDYEENSWDTESLCETVSQKDVCLPKAAHQKEIDKINGKLEGSPVKDGLLKANCGMKVSIPTKALELMDMQTFKAEPPEKPSAFEPAIEMQKSVPNKALELKNEQTLRADEILPSESKQKDYEESSWDSESLCETVSQKDVCLPKATHQKEIDKINGKLEESPDNDGFLKAPCRMKVSIPTKALELMDMQTFKAEPPEKPSAFEPAIEMQKSVPNKALELKNEQTLRADQMFPSESKQKKVEENSWDSESLRETVSQKDVCVPKATHQKEMDKISGKLEDSTSLSKILDTVHSCERARELQKDHCEQRTGKMEQMKKKFCVLK
As to B1, the “reactivity of the four antibody positive sera in Western blot” value in assay [1] (the four cancer sera positive for amino acids 993-1188) is reported as “None of the four antibody positive sera reacted”.

B2: amino acids 993-1188: recombinant protein consisting of amino acids 993-1188 of SEQ ID NO: 23 (NY-BR-1) (protein)
chain: REELGRIEEQHRKELEVKQQLEQALRIQDIELKSVESNLNQVSHTHENENYLLHENCMLKKEIAMLKLEIATLKHQYQEKENKYFEDIKILKEKNAELQMTLKLKEESLTKRASQYSGQLKVLIAENTMLTSKLKEKQDKEILEAEIESHHPRLASAVQDHDQIVTSRKSQEPAFHIAGDACLQRKMNVDVSSTIY
As for B2, the “reactivity of normal sera in Western blot” value in assay [1] (60 normal serum samples) is “negative”. Moreover, the “cancer sera samples positive in Western blot” value in assay [1] (140 serum samples from breast cancer patients) was “Four”.

The values are drawn from patent US7795379B2, “Isolated nucleic acid molecules encoding cancer associated antigens, the antigens per se, and uses thereof” (Ludwig Institute for Cancer Research, priority 1999, dated 2010).
